# Test results reported in article PMC12067741, “Inhibition of SOD1 trimerization is a novel drug target for ALS disease” (Translational Neurodegeneration, 2025).
# “Also recorded” adds a separate entry of the source. Where two headings read alike, the source gives them in different places.
# Tests used:
# [1] = mouse, in vivo, po, 20 mg/kg
# Source text: Next, we checked the basic in vitro ADME test including pharmacokinetics, plasma protein binding, CYP (Cytochrome P450) inhibition, metabolic stability and blood–brain barrier (BBB) permeability. […] We also plan to test safety panel assay in the future to obtain safety data for the drug.
# (§1) Fig. S8. Preclinical data of PRG-A-04 a Plasma protein binding b CYP inhibition(direct) […]
# (§2) d Mouse Brain Tissue penetration
# (§3) For the convenience of calculation, […]
# [2] = Metabolic stability in liver microsomes; format: in vitro ADME; details: human liver microsomes
# CYP 1A2 = CYP 1A2 (Homo sapiens, UniProt P05177); assay: CYP inhibition (direct); format: in vitro ADME; details: CYP 1A2, direct inhibition
# Chain of CYP 1A2 (P05177 whole entry): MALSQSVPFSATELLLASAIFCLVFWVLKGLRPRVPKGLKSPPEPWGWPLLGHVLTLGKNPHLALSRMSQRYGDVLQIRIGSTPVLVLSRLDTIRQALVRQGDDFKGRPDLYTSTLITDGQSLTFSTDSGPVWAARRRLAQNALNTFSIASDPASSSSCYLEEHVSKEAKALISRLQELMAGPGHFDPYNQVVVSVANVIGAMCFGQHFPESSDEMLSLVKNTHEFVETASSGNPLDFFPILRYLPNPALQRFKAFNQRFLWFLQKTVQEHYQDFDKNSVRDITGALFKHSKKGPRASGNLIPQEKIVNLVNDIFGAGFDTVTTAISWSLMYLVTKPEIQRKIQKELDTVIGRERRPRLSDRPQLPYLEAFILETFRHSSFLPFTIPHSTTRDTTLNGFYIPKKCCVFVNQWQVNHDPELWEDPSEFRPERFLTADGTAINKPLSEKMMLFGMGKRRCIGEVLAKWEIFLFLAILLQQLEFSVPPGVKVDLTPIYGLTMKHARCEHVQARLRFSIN
# Source text: as §1, §2, §3
# CYP 3A = assay: CYP inhibition (direct)
# Source text: as §1, §2, §3
# [3] = Metabolic stability in liver microsomes; format: in vitro ADME; details: SD rat liver microsomes
# MT-SOD1 = assay: SOD1 oligomerization assay in cells transfected with MT-SOD1 (glutaraldehyde fixation, SDS-PAGE); format: cell-based
# Protocol: For SDS-PAGE, proteins were extracted from cells with the RIPA buffer (50 mmol/L Tris–Cl, pH 7.5, 150 mmol/L NaCl, 1% NP-40, 0.1% SDS and […]). To detect the oligomer status, the cells were harvested with the TNNI buffer (50 mmol/L Tris–Cl, pH 7.5, 150 mmol/L NaCl, 0.3% NP-40, 100 mmol/L iodoacetamide, protease inhibitor cocktails) and reacted with 0.04% glutaraldehyde (Glu) for 30 min, and then SDS-PAGE was performed using the pan-SOD1 antibody. Samples were separated via SDS-PAGE and transferred to PVDF membrane. Blotted membranes were blocked by 3% skim milk containing TBST buffer for 1 h and incubated with specific antibodies. The following primary antibodies were used: pan-SOD1 (GTX100554) from Genetex (Irvine, CA); misfolded SOD1-specific antibody (B8H10) from MediMabs (Montreal, Canada); Actin (sc-1616), GST (sc-138), and GFP (Green fluorescent protein; sc-8036) antibodies from Santa Cruz Biotechnology (Santa Cruz, CA); TDP-43 antibody (10782–2-AP) from Proteintech (Rosemont, IL); anti-FLAG (Sigma; F3165) from Sigma-Aldrich (St. Louis, MO). HRP-conjugated goat anti-mouse, goat anti-rabbit and mouse anti-goat antibodies (Pierce, Thermo Fisher Scientific, Inc., Rockford, IL) were used as secondary antibodies. The blots were detected using an ECL assay (Advansta) and images were acquired using the […] ImageQuant 800 (Cytiva) system and an X-Ray film detector. […]
# MT-SOD1 protein uptake = assay: SOD1 recombinant protein uptake into neuronal cells; format: cell-based
# Protocol: For monitoring the localization of SOD1 recombinant proteins, SOD1-Halo proteins were added in neuronal cultures for 2 h and then the cells were incubated with the cell-permeable HaloTag-fluorscent ligands (diAcFAM) for 30 min. After incubation, cells were washed with serum-free culture medium three times and incubated in serum-containing culture medium in a CO2 incubator for 30 min to wash out unbound ligand. Fluorescent images of live cells were obtained using a commercial Tomocube HT-2H holotomography system (Daejeon, Republic of Korea).
# We hypothesized that PRG-A-04, which targets trimeric SOD1, would inhibit SOD1 protein uptake. MT-SOD1 proteins were incubated with PRG-A-04 in vitro, and then cells were treated with the mixture. The MT-SOD1 protein uptake was reduced by incubation with PRG-A-04, as was SOD1 oligomerization (Fig. 3f, g). […] However, whether neuron-specific receptors on synapses, physiological conditions (neuronal cellular stress such as ion deficiency, environmental conditions such as hypoxia) and other ALS-related genetic causes (TDP-43, FUS, etc.) are essential for SOD1 uptake requires further study.
# Fig. S3 SOD1 protein uptake into the cells through endocytosis. a, The uptake of SOD1 proteins was achieved by endocytosis. SH-SY5Y cells were treated with SOD1 recombinant proteins and endocytosis inhibitor (Dynasore; […]) for 6hr. After incubations, cells were harvested with RIPA and separated by SDS-PAGE. S.E: short exposure, L.E: long exposure. b, The recombinant MT-SOD1 protein is located intracellular space in neuron cells. SOD1-Halo proteins (3 μg/ml) were treated in neuron cells for 2 hr and incubated with HaloTag-fluorscent ligands (cellpermeable ligands; diAcFAM) for 30 min. After incubation, cells were washed with fresh culture medium three times and.
# Incubate cells in complete culture medium at CO2 incubator for 30 min to wash unbound ligand. The fluorescence images of live cells were obtained using a commercial holotomography (HT-2H). White arrows indicate the intensity of SOD1. BF; Bright field, Scale bar; […].
smiles,measurement,setting,value
COc1cc(C=CCOC2Cc3cc4ccc(=O)oc4cc3OC2(C)C)ccc1[N+](=O)[O-] (centres unmarked) [PRG-A-04],"Brain/Plasma Ratio, M01+3n",[1]; 0.5 h,2.18
same,"Brain/Plasma Ratio, M02+3n",[1]; 0.5 h,1.54
same,"Brain/Plasma Ratio, M03+3n",[1]; 0.5 h,1.90
same,"Brain/Plasma Ratio, Mean",[1]; 0.5 h,1.87
same,"Brain/Plasma Ratio, M01+3n",[1]; 1 h,2.29
same,"Brain/Plasma Ratio, M02+3n",[1]; 1 h,2.02
same,"Brain/Plasma Ratio, M03+3n",[1]; 1 h,2.02
same,"Brain/Plasma Ratio, M01+3n",[1]; 12 h,1.92
same,"Brain/Plasma Ratio, M02+3n",[1]; 12 h,1.87
same,"Brain/Plasma Ratio, M03+3n",[1]; 12 h,1.71
same,"Brain/Plasma Ratio, Mean",[1]; 12 h,1.84
same,extent of metabolism in liver microsomes,[2],moderately metabolized
same,IC50,CYP 1A2,> 10 µM
same,IC50,CYP 3A,> 10 µM
same,IC50,"CYP 3A; read-out: IC50, DI, CYP 3A(midazolam), direct inhibition",> 10 µM
same,extent of metabolism in liver microsomes,[3],highly metabolized
same,effect on SOD1 dimer formation,MT-SOD1; cells transfected with MT-SOD1,did not affect dimer formation
same,effect on MT-SOD1 aggregation / oligomerization,MT-SOD1; cells transfected with MT-SOD1 vectors,suppressed the MT-SOD1 aggregation; also recorded: blocked aggregation of various SOD1 mutants; also recorded: suppressed SOD1 oligomerization by MT-SOD1 in a dose-dependent manner
same,effect on MT-SOD1 protein uptake,"MT-SOD1 protein uptake; MT-SOD1 protein pre-incubated with PRG-A-04 in vitro, then added to neuronal cells",selectively inhibited MT-SOD1 uptake; also recorded: reduced
same,effect on SOD1 oligomerization induced by SOD1 protein uptake,MT-SOD1 protein uptake; neuronal cells,reduced SOD1 oligomerization induced by SOD1 protein uptake
